Test results taken from patent US10781325B2, “Curable composition, curable ink, accommodating container, image forming device, image forming method, cured matter, and acrylamide compound” (Ricoh Company, Ltd., priority 2016, dated 2020).

tested on: female rats of Slc: Wistar/ST series; experiment: Limiting test based on Acute Oral Toxicity Test (OECD TG423, Acute Toxic Class Method); assay type: in vivo, rat; conditions: single gavage dose 2,000 mg/kg weight of body, six animals per testing article, observed 14 days
Source text: The curable compounds of Example 1a, Example 4a, Comparative Example 1a, and Comparative Example 2a were subject to the limiting test based on Acute Oral Toxicity Test (OECD TG423) according to Acute Toxic Class Method in the following manner to evaluate safeness.
Regarding the curable compound of the present disclosure as test article, 24 female rats of Slc: Wistar/ST series of 5 week old as animal used were ordered for Japan SLC, Inc. The animals were habituated for one week. No abnormalities were found in all of the rats (animals used) during the habituation period.
Based on the body weights measured two days before the initiation of administration, they were categorized into four groups (six rats per group) by the body weight stratified random sampling method so that the body weight of each individual was within ±20% of the average body weight of all of the individuals. The individuals not classified into the groups were excluded from the test.
First group, Example 1a: Testing article: curable compound represented by the chemical structure a1-1, Amount of administration: 2,000 mg/kg weight of body, number of animals used: six
Second group, Example 4a: Testing article: curable compound represented by the chemical structure d1-1, Amount of administration: 2,000 mg/kg weight of body, number of animals used: six
Third group, Comparative Example 1a: Testing article: N,N-diethylacrylamide represented by the chemical structure (1), Amount of administration: 2,000 mg/kg weight of body, number of animals used: six
Fourth group, Comparative Example 2a: Testing article: Acrylamide represented by the chemical structure (2), Amount of administration: 2,000 mg/kg weight of body, number of animals used: six
100 mg of the testing article was weighed using a measuring flask and water was added as solvent to make 1 mL in total. […] The preparation liquid of the testing article was prepared on the day of administration.
The animals used were on fasting except for water for 17 hours before administration. The mass was measured after the fasting and the testing article was provided by gavage administration one time using a gastric tube. After the administration, no food was given for another three to four hours.
The administration was on one dose of 2,000 mg/kg weight of body and six animals were used per testing article.
Note that the observation was counted from the day of the initiation of administration being regarded as Day 1.
The number of animals who died during the test period was counted.

Row | Compound | Safeness (number of dead)
1 | C=CC(=O)N(C)CCOC [Comparative Example 2a, reference compound] | 6
2 | C=CC(=O)N(CC)CC [Comparative Example 1a, N,N-diethylacrylamide, reference compound] | 6
3 | C=CC(=O)N(C)CCOC(C)=O [Example 1a] | 3
4 | C=CC(=O)N(C)CC(=O)OC [Example 4a] | 0

tested on: not listed separately; experiment: Measuring of viscosity of curable compound (cone plate type rotatory viscometer); assay type: physicochemical; conditions: cone rotor, 50 rpm
Experimental: Viscosity of the thus-obtained curable compound was measured by a cone plate type rotatory viscometer (VISCOMETER TVE-22L, manufactured by TOKI SANGYO CO., LTD.) using a cone rotor (1°34′×R24) at a number of rotation of 50 rpm and at 25 degrees C. of hemathermal circulating water.

Row | Compound | Viscosity (25 degrees C., mPA · s) [mPA · s]
5 | C=CC(=O)N(C)CCOC [Comparative Example 2a, reference compound] | 2.4
6 | C=CC(=O)N(CC(=O)OCC)CC(=O)OCC [Comparative Example 3a, reference compound] | 69.2
7 | C=CC(=O)N(CC)CC [Comparative Example 1a, N,N-diethylacrylamide, reference compound] | 2.6
8 | C=CC(=O)N(C)CCOC(=O)C(C)C [Example 2a] | 9.5
9 | C=CC(=O)N(C)CC(=O)OCCCC [Example 6a] | 11.9
10 | C=CC(=O)N(C)CC(=O)OCC [Example 5a] | 11.4
11 | C=CC(=O)N(CCOC(C)=O)C(C)(C)C [Example 3a] | 16.4
12 | C=CC(=O)N(C)CCOC(C)=O [Example 1a] | 8.4
13 | C=CC(=O)N(C)CC(=O)OC(C)C [Example 7a] | 14.1
14 | C=CC(=O)N(C)CC(=O)OC [Example 4a] | 12.3

The next lines start with the values.

Row | Viscosity (25 degrees C., mPA · s) [mPA · s] | Compound
15 | 8.9 | C=CC(=O)N(C)C(C)C(=O)OC (stereo not shown) [Example 13a]
16 | 6.9 | C=CC(=O)N(C)C(C)C(=O)OCC (stereo not shown) [Example 14a]
17 | 25.4 | C=CC(=O)N(CC(=O)OC)C(C)C [Example 9a]
18 | 20.4 | C=CC(=O)N(CCC)CC(=O)OCC [Example 8a]
19 | 29.9 | C=CC(=O)N(CCCCCC)CC(=O)OC [Example 11a]
20 | 23.7 | C=CC(=O)N(CCCCCC)CC(=O)OCCCC [Example 12a]
21 | 22.1 | C=CC(=O)N(CC(=O)OC(C)C)C(C)C [Example 10a]
22 | 6.8 | C=CC(=O)N(C)C(C)C(=O)OC(C)C (stereo not shown) [Example 15a]
